Measurements taken from patent publication US20240041042A1, “1-(PYRIDYL)-5-AZINYLPYRAZOLE DERIVATIVES, AND THEIR USE FOR CONTROL OF UNDESIRED PLANT GROWTH” (Bayer Aktiengesellschaft, priority 2020, published 2024).
Read-outs that look alike come from different tables or passages of the source.

How the values were obtained:
Type in all cases: in vivo
[1] = tested on: Pharbitis purpurea (PHBPU); assay: Post-emergence herbicidal action against PHBPU
In short: (§1)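 Doses of 320 g/ha or lower, suffixes a, b and c marking different dosages, were applied post-emergence at the one-leaf stage in 600 l/ha water with 0.5% additive. Damage was assessed visually after about 3 weeks in the greenhouse.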

[2] = tested on: Verconica persica (VERPE); assay: Post-emergence herbicidal action against VERPE
In short: as §1

Viola tricolor (VIOTR) [3] = assay: Post-emergence herbicidal action against VIOTR
In short: as §1

[4] = tested on: Triticum aestivum (TRZAS); conditions: crop plant compatibility, effect vs untreated controls
In short: (§2)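 One-leaf-stage crops (2–3 wk post-sowing, sandy loam, greenhouse) sprayed on green parts; 0.5% additive, 600 l/ha water. Rated by eye ~3 wk later, % vs untreated; suffixes a/b/c mark different dosages.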

Zea mays (ZEAMX) = conditions: for Post-emergence action against ZEAMX in % (crop plant compatibility): 20 g/ha, effect in comparison to untreated controls; for Post-emergence action against ZEAMX in %: crop plant compatibility, effect vs untreated controls
In short: as §2

[5] = tested on: Abutilon theophrasti (ABUTH); assay: Post-emergence herbicidal action against ABUTH; conditions: visual rating about 3 weeks after treatment vs untreated controls (100% = plants have died, 0% = like control plants)
In short: as §1

[6] = tested on: Alopecurus myosuroides (ALOMY); assay: Post-emergence herbicidal action against ALOMY; conditions: visual rating about 3 weeks after treatment vs untreated controls (100% = plants have died, 0% = like control plants)
In short: as §1

[7] = tested on: Amaranthus retroflexus (AMARE); assay: Post-emergence herbicidal action against AMARE
In short: as §1

Avena fatua (AVEFA) = assay: Post-emergence herbicidal action against AVEFA; conditions: visual rating about 3 weeks after treatment
In short: as §1

[8] = tested on: Digitaria sanguinalis (DIGSA); assay: Post-emergence herbicidal action against DIGSA; conditions: visual rating about 3 weeks after treatment
In short: as §1

[9] = tested on: Echinochloa crus-galli (ECHCG); assay: Post-emergence herbicidal action against ECHCG
In short: as §1

Lolium rigidum (LOLRI) = assay: Post-emergence herbicidal action against LOLRI
In short: as §1

[10] = tested on: Matricaria inodora (MATIN); assay: Post-emergence herbicidal action against MATIN
In short: as §1

[11] = tested on: Polygonum convolvulus (POLCO); assay: Post-emergence herbicidal action against POLCO
In short: as §1

Setaria viridis (SETVI) = assay: Post-emergence herbicidal action against SETVI
In short: as §1

Oryza sativa (ORYSA) = conditions: crop plant compatibility
In short: as §2

[12] = tested on: Amaranthus retroflexus (AMARE); assay: Pre-emergence herbicidal action against AMARE; conditions: 320 g/ha, visual scoring after about 3 weeks vs untreated controls
In short: (§3)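 Pre-emergence soil-surface spray of compound, formulated as wettable powder or emulsion concentrate, in aqueous suspension or emulsion with 0.5% additive (600 l/ha; rate 320 g/ha or less). Activity rated visually after roughly 3 weeks in the greenhouse as a percentage of untreated controls, 0% meaning no difference.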

[13] = tested on: Echinochloa crus-galli (ECHCG); assay: Pre-emergence herbicidal action against ECHCG; conditions: dosage 320 g/ha
In short: as §3

[14] = tested on: Polygonum convolvulus (POLCO); assay: Pre-emergence herbicidal action against POLCO; conditions: dosage 320 g/ha
In short: as §3

[15] = tested on: Verconica persica (VERPE); assay: Pre-emergence herbicidal action against VERPE; conditions: dosage 320 g/ha
In short: as §3

Viola tricolor (VIOTR) [16] = assay: Pre-emergence herbicidal action against VIOTR; conditions: 320 g/ha, Viola tricolor
In short: as §3

[17] = 80 g/ha, visual rating about 3 weeks after treatment vs untreated controls (100% = plants have died, 0% = like control plants)
[18] = 320 g/ha, visual rating about 3 weeks after treatment
[19] = 20 g/ha, effect vs untreated controls
[20] = 80 g/ha, effect in comparison to untreated controls
[21] = 320 g/ha, effect in comparison to untreated controls

SMILES | Post-emergence action against PHBPU in % ([1]; dosage 320 g/ha) [%] | Post-emergence action against VERPE in % ([2]; 320 g/ha, VERPE) [%] | Post-emergence action against VIOTR in % (Viola tricolor (VIOTR) [3]; 80 g/ha) [%] | Post-emergence action against VIOTR in % (Viola tricolor (VIOTR) [3]; 320 g/ha) [%] | Post-emergence action against TRZAS in % ([4]; 20 g/ha) [%] | Post-emergence action against TRZAS in % ([4]; 80 g/ha) [%] | Post-emergence action against ZEAMX in % (crop plant compatibility) (Zea mays (ZEAMX)) [%] | Post-emergence action against ZEAMX in % (Zea mays (ZEAMX); 80 g/ha) [%] | Post-emergence action against ABUTH in % ([5]; 320 g/ha) [%] | Post-emergence action against ALOMY in % ([6]; 320 g/ha) [%] | Post-emergence action against AMARE in % [7, 18] [%] | Post-emergence action against AVEFA in % (Avena fatua (AVEFA); 320 g/ha) [%] | Post-emergence action against ECHCG in % ([9]; dosage 320 g/ha) [%] | Post-emergence action against POLCO in % ([11]; dosage 320 g/ha) [%] | Post-emergence action against SETVI in % (Setaria viridis (SETVI); dosage 320 g/ha) [%] | Post-emergence action against VERPE in % ([2]; dosage 80 g/ha) [%] | Post-emergence action against ORYSA in % (Oryza sativa (ORYSA); [19]) [%] | Post-emergence action against ORYSA in % (Oryza sativa (ORYSA); [20]) [%] | Post-emergence action against ORYSA in % (Oryza sativa (ORYSA); [21]) [%] | Post-emergence action against ZEAMX in % (Zea mays (ZEAMX); 320 g/ha) [%] | other results
COC(=O)CCOC(=O)COc1nn(-c2ccccn2)c(-c2ccc(F)nc2)c1C1CC1(F)F (centres unmarked) [Example I-248] | 90 | 80 | 80 | 80 | 0 | 0 | 0 | 0 | – | – | – | – | – | – | – | – | – | – | – | – | –
COCCOC(=O)COc1nn(-c2ncccc2F)c(-c2ccc(F)nc2)c1C1CC1 [Example I-314] | 90 | 90 | 90 | 90 | – | – | 0 | 10 | 80 | 90 | 90 | 90 | 90 | 90 | 90 | 90 | 0 | 20 | – | – | Post-emergence action against ABUTH in % ([5]; 80 g/ha): 80%; Post-emergence action against ALOMY in % ([6]; 80 g/ha): 90%; Post-emergence action against AMARE in % [7, 17]: 90%; Post-emergence action against AVEFA in % (Avena fatua (AVEFA); 80 g/ha): 90%; Post-emergence action against DIGSA in % ([8]; 80 g/ha): 90%; Post-emergence action against DIGSA in % ([8]; 320 g/ha): 90%; Post-emergence action against ECHCG in % ([9]; dosage 80 g/ha): 90%; Post-emergence action against LOLRI in % (Lolium rigidum (LOLRI); dosage 80 g/ha): 90%; Post-emergence action against LOLRI in % (Lolium rigidum (LOLRI); dosage 320 g/ha): 90%; Post-emergence action against MATIN in % ([10]; dosage 320 g/ha): 80%; Post-emergence action against PHBPU in % ([1]; dosage 80 g/ha): 90%; Post-emergence action against SETVI in % (Setaria viridis (SETVI); dosage 80 g/ha): 90%
Cc1ncccc1-n1nc(OCC(=O)OCc2ccccn2)c(Br)c1-c1cncc(F)c1 [II-39] | 90 | 90 | 80 | 90 | 0 | 20 | 0 | 0 | 80 | 90 | 80 | 90 | 90 | – | 90 | 80 | 0 | 0 | 0 | 20 | –
CCOC(=O)COc1nn(-c2cccnc2C)c(-c2ccc(F)nc2)c1Br [II-46] | – | 90 | – | 90 | 0 | 0 | 0 | 0 | – | 80 | – | – | – | 80 | – | – | 0 | 0 | 0 | 20 | –
COC(=O)C(C)COC(=O)COc1nn(-c2ncccc2C(F)(F)F)c(-c2ccc(F)nc2)c1C1CC1(F)F (centres unmarked) [Example I-268] | 80 | 80 | 80 | 80 | 0 | 0 | 0 | 0 | 80 | – | – | – | – | – | – | – | – | – | – | – | –
CCOC(=O)COc1nn(-c2ccccn2)c(-c2ccc(F)nc2)c1C1CC1(F)F (centres unmarked) [Example I-387] | – | – | – | – | 0 | 0 | 0 | 0 | – | – | – | – | – | – | – | – | – | – | – | 0 | Post-emergence action against TRZAS in % ([4]; 320 g/ha): 0%
O=C(O)COc1nn(-c2ccccn2)c(-c2ccc(F)nc2)c1C1CC1(F)F (centres unmarked) [Example I-249] | – | 80 | 80 | 80 | 0 | 0 | 0 | 20 | 80 | – | – | – | – | – | – | – | – | – | – | – | Post-emergence action against TRZAS in % ([4]; 320 g/ha): 0%
Cc1ncccc1-n1nc(OCC(=O)O)c(Br)c1-c1cncc(F)c1 [II-38] | 80 | 90 | 90 | 90 | 0 | 10 | 0 | 0 | 80 | 100 | 80 | 90 | 90 | 90 | 90 | 80 | 0 | 0 | 0 | 0 | –
O=C(COc1nn(-c2ncccc2F)c(-c2ccc(F)nc2)c1C1CC1)OCC(F)(F)F [Example I-326] | 90 | 90 | 90 | 90 | – | – | 0 | 0 | 80 | 90 | 90 | 90 | 90 | 90 | 90 | 90 | 0 | – | – | – | Post-emergence action against ABUTH in % ([5]; 80 g/ha): 80%; Post-emergence action against ALOMY in % ([6]; 80 g/ha): 90%; Post-emergence action against AMARE in % [7, 17]: 90%; Post-emergence action against AVEFA in % (Avena fatua (AVEFA); 80 g/ha): 90%; Post-emergence action against DIGSA in % ([8]; 80 g/ha): 80%; Post-emergence action against DIGSA in % ([8]; 320 g/ha): 90%; Post-emergence action against ECHCG in % ([9]; dosage 80 g/ha): 90%; Post-emergence action against LOLRI in % (Lolium rigidum (LOLRI); dosage 80 g/ha): 90%; Post-emergence action against LOLRI in % (Lolium rigidum (LOLRI); dosage 320 g/ha): 90%; Post-emergence action against MATIN in % ([10]; dosage 320 g/ha): 80%; Post-emergence action against PHBPU in % ([1]; dosage 80 g/ha): 80%; Post-emergence action against POLCO in % ([11]; dosage 80 g/ha): 80%; Post-emergence action against SETVI in % (Setaria viridis (SETVI); dosage 80 g/ha): 90%
COC(=O)CNC(=O)COc1nn(-c2ncccc2C(F)(F)F)c(-c2cncc(F)c2)c1Br [Example I-205] | – | – | – | – | – | 10 | – | 0 | – | – | – | – | – | – | – | – | – | 0 | 10 | 0 | Pre-emergence action against AMARE in % [12]: 80%; Pre-emergence action against ECHCG in % [13]: 80%; Pre-emergence action against POLCO in % [14]: 80%; Pre-emergence action against VERPE in % [15]: 100%; Pre-emergence action against VIOTR in % (Viola tricolor (VIOTR) [16]): 100%; Post-emergence action against TRZAS in % ([4]; 320 g/ha): 10%
O=C(COc1nn(-c2ncccc2F)c(-c2ccc(F)nc2)c1C1CC1)OCC1CC1 [Example I-318] | 90 | 90 | 80 | 90 | – | – | 0 | 0 | 80 | 90 | 90 | 90 | 90 | 90 | 90 | 90 | 0 | – | – | – | Post-emergence action against ABUTH in % ([5]; 80 g/ha): 80%; Post-emergence action against ALOMY in % ([6]; 80 g/ha): 90%; Post-emergence action against AMARE in % [7, 17]: 90%; Post-emergence action against AVEFA in % (Avena fatua (AVEFA); 80 g/ha): 90%; Post-emergence action against DIGSA in % ([8]; 80 g/ha): 90%; Post-emergence action against DIGSA in % ([8]; 320 g/ha): 90%; Post-emergence action against ECHCG in % ([9]; dosage 80 g/ha): 90%; Post-emergence action against LOLRI in % (Lolium rigidum (LOLRI); dosage 80 g/ha): 90%; Post-emergence action against LOLRI in % (Lolium rigidum (LOLRI); dosage 320 g/ha): 90%; Post-emergence action against MATIN in % ([10]; dosage 80 g/ha): 80%; Post-emergence action against MATIN in % ([10]; dosage 320 g/ha): 80%; Post-emergence action against PHBPU in % ([1]; dosage 80 g/ha): 90%; Post-emergence action against POLCO in % ([11]; dosage 80 g/ha): 90%; Post-emergence action against SETVI in % (Setaria viridis (SETVI); dosage 80 g/ha): 90%
